Data on 14 compounds can be found in paper PMC7024557, “Synthesis of Novel Structural Hybrids between Aza-Heterocycles and Azelaic Acid Moiety with a Specific Activity on Osteosarcoma Cells” (Molecules, 2020).

In data set [1] the test system is HT29 (human colon adenocarcinoma). Kind of data set: MTT assay, cell viability. Particulars: HT-29, after 48 h of treatment, n.a. = non active. It counts as cell-based. The source says: (§1) Cell lines included in the evaluation of toxicity profiles were malignant U2OS, HT29, PC3, and IGROV1, and a normal human adult fibroblast cell line HDFa.
(§2) The human prostate cancer (PC3), human colon cancer (HT29), human bone osteosarcoma (U2OS), and normal human adult fibroblast (HDFa) cell lines were purchased from American Type Culture Collection (ATCC, Manassas, VA, USA), while the human ovarian cancer cell line (IGROV1) was kindly provided by Istituto Nazionale Tumori (IRCCS, Milano, Italy). Cells were cultured in Roswell Park Memorial Institute (RPMI)-1640 medium (Labtek Eurobio, Milan, Italy), supplemented with 10% fetal calf serum (FCS; Euroclone, Milano, Italy) and 2mM L-glutamine (Sigma-Aldrich, Milano, Italy), at 37 °C and 5% CO2 atmosphere. The compounds were dissolved in dimethyl sulfoxide (DMSO) in a 60 mM stock solution. In cell treatments, the final DMSO concentration never exceeded 0.1%.
(§3) U2OS were seeded at 1.5 × 10^4 cells/well in a 96-well culture plastic plate (Orange Scientific, Braine-l’Alleud, Belgium) and, after 24 h of growth, cells were exposed for additional 48 h to increasing concentrations of compounds (0.1 µM and […]) solubilized in RPMI-1640 medium. On the day of measurement, the culture medium was replaced with 0.1 mL of 3-(4,5-dimethylthiazolyl-2)-2,5-diphenyltetrazolium bromide (MTT, Sigma-Aldrich) dissolved in phosphate-buffered saline (PBS) at the concentration of 0.2 mg/mL, and samples were incubated for 2 h at 37 °C. To dissolve the blue-violet formazan salt crystals formed, 0.1 mL of isopropyl alcohol was added to each well and incubated for 20 min. The absorbance at 570 nm was measured using a multiwell plate reader (Wallac Victor2, PerkinElmer, Milano, Italia), and viability was compared with that of untreated cells, used as controls.
Background: Tetrazolium dyes change colour on reduction, which living cells bring about.

Data set [2] concerns PC3 (human prostatic carcinoma). Kind of data set: MTT assay, cell viability. It counts as cell-based. Particulars: after 48 h of treatment, n.a. = non active.
Text: as §1, §2, §3

Data set [3] has as its system IGROV1 (human ovarian carcinoma). Nature of the data set: MTT assay, cell viability. It counts as cell-based. Particulars: IGROV-1, after 48 h of treatment, n.a. = non active.
Text: as §1, §2, §3

A further data set concerns U2OS cell line. Also noted: method as in PMID 31646829, PMID 26298721. Particulars: ref [30],[31]; cited from earlier work.
Data set [4] deals with U2OS (human osteosarcoma). Kind of data set: MTT assay, cell viability. Particulars: for IC50: Homo sapiens, U2OS, after 48 h of treatment, n.a. = non active; for sensitivity of U2OS to the compound (IC50 analysis): only U2OS among tumor cell lines. It counts as cell-based.
Text: as §1, §2, §3

Data set [5] concerns human osteosarcoma growth. On the set-up: method as in PMID 24344034, PMID 30697272. Particulars: ref [32],[33]; read-out: IC50, inhibition of human osteosarcoma growth; cited from earlier work.
The subject of data set [6] is U2OS cells. Kind of data set: Hoechst 33,342 nuclear staining, confocal microscopy. Format: cell-based, human. Particulars: 24 h. As to the method: These effects induced by the above compounds on histone acetylation are not associated with events involved in apoptotic death.
Nuclear morphology was assayed using a specific dye Hoechst 33,342. U2OS treated cells were washed, fixed, and then stained with 1 µM Hoechst 33,342 (Sigma-Aldrich, St Louis, MO, USA) for 15 min. Samples were embedded in Mowiol and analyzed using a Nikon C1s confocal laser-scanning microscope, equipped with a Nikon PlanApo 40×, 1.4 numerical aperture (NA) oil immersion lens. Images were quantified by ImageJ software (IMAJ 1.x).

For data set [7], the system named is U2OS cells. Kind of data set: Cell-cycle assay by flow cytometry (PI fluorescence, forward scatter). It counts as cell-based, human. Particulars: 24 h; for mean channel of FS distribution (nuclear size): U2OS nuclei, 35 μM of 6, 50 μM of 5a or 8a, control cells 730; for effect on cell-cycle progression: U2OS, 35 μM of compound 6, 50 μM of 5a, 50 μM of 8a. The method, then: To infer whether their effects were due to interference with cell-cycle progression, DNA profiles of cultured cells were examined by flow cytometry. […] As clear from Figure 3, the nuclei in all cell-cycle phases were affected.
For the cell-cycle assay, U2OS cells were treated for 24 h with 35 μM of compound 6, 50 μM of 5a, or 50 μM of 8a, detached with 0.11% trypsin (Sigma-Aldrich, S.Louis, MO, USA)/0.02% ethylenediaminetetraacetic acid (EDTA) (Sigma-Aldrich, S.Louis, MO, USA), washed in PBS, and centrifuged. The pellet was resuspended in 0.01% Nonidet P-40 (Sigma-Aldrich, S.Louis, MO, USA), 10 μg/mL RNase (Sigma-Aldrich, S.Louis, MO), 0.1% sodium citrate, and 50 μg/mL propidium iodide (PI) (Sigma-Aldrich, S.Louis, MO, USA), for 30 min at room temperature in the dark. PI fluorescence and forward scatter (FS) signals were analyzed using a Beckman Coulter Epics XL-MCL flow cytometer. DNA distribution in the cell cycle was analyzed by the MODFIT 5.0 software. As the signal collected by a multichannel analyzer, the mean of the FS distribution is expressed as mean channel.
For orientation: Flow cytometry measures light scatter and fluorescence of single cells or particles in a stream.

Data set [8] deals with acetylated histones H2/H3 and H4 in U2OS cells. Nature of the data set: Histone acetylation, Western blot with anti-acetyl lysine antibody. Format: cell-based, human. Particulars: 6 h, densitometry normalized on histone H1, vs control. The source says:
To identify acetylated histones, we analyzed the nuclear cell lysates by Western blot using a 15% polyacrylamide gel electrophoresis. After electrophoresis, the proteins were transferred to a nitrocellulose membrane and then immunoblotted with an anti-acetyl lysine monoclonal antibody. […] Differences in the density of bands are thought to reflect differences in protein acetylation levels. Histone acetylation signals were quantified by densitometry and normalized on histone H1. Histones H2/H3 acetylation increased by 28% upon treatment with 6 for 6 h with no effect on H4 acetylation, whereas compound 8a induced hyperacetylation by 30% on histone H4 only.
U2OS were cultured with 5a, 6, or 8a, for 6 h, and the histone fraction was immediately extracted. Cells were harvested using 0.11% trypsin and 0.02% EDTA, washed twice with 10 mM sodium butyrate (NaBu) in PBS, and nuclei were isolated according to Amellem et al.. The nuclear pellet was suspended in 0.1 mL of ice-cold water using a Vortex mixer, and concentrated H2SO4 was added to the suspension to give a final concentration of 0.4 N. After incubation at 4 °C for 1 h, the suspension was centrifuged for 5 min at 14,000× g, and the supernatant was taken and mixed with 1 mL of acetone. After overnight incubation at −20 °C, the coagulate material was collected by microcentrifugation and air-dried, and proteins were quantified using a protein assay kit (Bio-Rad, Hercules, CA, USA). Histones were analyzed as previously described. Briefly, histones were resolved by 15% SDS-PAGE and immunoblotted with anti-acetylated lysine antibody (Cell Signaling Technology, Beverly, MA, USA); the detection of immunoreactive bands was performed with a secondary antibody conjugated with horseradish peroxidase and developed with an enhanced chemiluminescence (ECL) system, developed with the enhanced chemiluminescence system Clarity Western (Bio-Rad, Hercules, CA, USA), and quantification was done by Fluor-S Max MultiImager (Bio-Rad). Histone acetylation signals were quantified by densitometry and normalized on histone H1.
For orientation: A western blot detects proteins with antibodies after separation by electrophoresis.

The compound `COC(=O)CCCCCCCC(=O)Nc1cncnc1` [5c, Methyl 9-oxo-9-(pyrimidin-5-ylamino)nonanoate] displayed a melting point of 78.6 to 80.2 °C. Further, the IC50 in [1] is over 100 µM. Further, the IC50 in data set [2] was over 100 µM. This compound also had an IC50 in data set [3] of over 100 µM.

In the case of `O=c1[nH]cc(F)c(=O)[nH]1` [5-fluorouracile], the IC50 with U2OS cell line is 0.3 µM.

In turn, `COC(=O)CCCCCCCC(=O)Nc1ccncc1` [4c, Methyl 9-oxo-9-(pyridin-4-ylamino)nonanoate] had a melting point of 83 to 85 °C. The IC50 in data set [4] was over 100 µM.

In the case of `CCCC(=O)[O-].[Na+]` [sodium butyrate], the IC50 in [5] is 5 µM.

For the compound `N.N.[Cl][Pt][Cl]` [Cisplatin], the IC50 with U2OS cell line is 1.67 µM.

`COC(=O)CCCCCCCC(=O)n1nnc2ccccc21` [8b, Methyl 9-(1H-benzo[d][1,2,3]triazol-1-yl)-9-oxononanoate] displayed a melting point of 55.5 to 57.2 °C. The compound also gave an IC50 in [3] of over 100 µM.

`CC(/C=C/C(=O)NO)=C\[C@@H](C)C(=O)c1ccc(N(C)C)cc1` [trichostatin A]: in data set [5], the IC50 is 0.5 µM.

The compound `COC(=O)CCCCCCCC(=O)Nc1ccncn1` [5b, Methyl 9-oxo-9-(pyrimidin-4-ylamino)nonanoate] had a melting point of 92 to 94.2 °C. This compound showed an IC50 in [4] of over 100 µM. In data set [3], this compound had an IC50 of over 100 µM.

The compound `COC(=O)CCCCCCCC(=O)Nc1ccccn1` [4a, Methyl 9-oxo-9-(pyridin-2-ylamino)nonanoate] gave a melting point of 59 to 60 °C. The compound also registered an IC50 in [4] of over 100 µM. Also, the IC50 in data set [1] was over 100 µM.

In the case of `COC(=O)CCCCCCCC(=O)Nc1ncccn1` [5a, Methyl 9-oxo-9-(pyrimidin-2-ylamino)nonanoate], in the data set on U2OS cells [6], the “nuclear morphology by Hoechst 33,342 staining” value (from here on “nuclear morphology”) is given as “dim staining of nuclei”. Further, in the data set with U2OS cells [7], the “mean channel of FS distribution (nuclear size)” value (“mean channel of FS distribution” for short) was 735 and the “effect on cell-cycle progression” value is “slight accumulation in the synthesis (S) phase”. Also, in data set [4], 50 µM corresponded to half-maximal inhibition (IC50) and the “sensitivity of U2OS to the compound (IC50 analysis)” value (from here on “sensitivity of U2OS to the compound”) is reported as “sensitive”. Also, in [8], the “increase of histone H4 acetylation” value was 22% and the “increase of histones H2/H3 acetylation” value was 89%.

With `COC(=O)CCCCCCCC(=O)N(C(=O)CCCCCCCC(=O)OC)c1ncccn1` [compound 6, Dimethyl 9,9’-(pyrimidin-2-ylazanediyl)bis(9-oxononanoate)], the “nuclear morphology” value with U2OS cells [6] was “increase in nuclear size”. Further, in the data set on U2OS cells [7], the “mean channel of FS distribution” value is reported as 905 and the “effect on cell-cycle progression” value was “increase in the gap 0/gap 1 (G0/G1) fraction, with concomitant decrease in the G2/mitosis (M) phase”. Further, in [4], the IC50 is 35 µM and the “sensitivity of U2OS to the compound” value was “sensitive”. In [1], this compound displayed an IC50 of over 100 µM. In [8], the “increase of histone H4 acetylation” value is listed as “no effect” and the “increase of histones H2/H3 acetylation” value was 28%.

As to `COC(=O)CCCCCCCC(=O)Nc1cccnc1` [4b, Methyl 9-oxo-9-(pyridin-3-ylamino)nonanoate], the melting point lay in the range of 75.5 to 77.7 °C. In [4], the IC50 was over 100 µM. For the same compound, the IC50 in data set [1] was over 100 µM.

`COC(=O)CCCCCCCC(=O)n1cnc2ccccc21` [8a, Methyl 9-(1H-benzo[d]imidazol-1-yl)-9-oxononanoate]: the “nuclear morphology” value in the data set on U2OS cells [6] is on record as “dim staining of nuclei”. In the data set with U2OS cells [7], the “mean channel of FS distribution” value was 780 and the “effect on cell-cycle progression” value was “slight accumulation in the synthesis (S) phase”. Besides, in data set [4], the IC50 was determined as 50 µM and the “sensitivity of U2OS to the compound” value is given as “sensitive”. Besides, the IC50 in data set [1] is over 100 µM. Further, in data set [2], the IC50 was over 100 µM. Besides, the “increase of histone H4 acetylation” value in data set [8] worked out at 30%.

On to `COc1cccc2c1C(=O)c1c(O)c3c(c(O)c1C2=O)C[C@@](O)(C(=O)CO)C[C@@H]3O[C@H]1C[C@H](N)[C@H](O)[C@H](C)O1` [doxorubicin], for which the IC50 with U2OS cell line is 0.5 µM.

What is called melting point is the temperature, or range, at which the solid turns liquid. The IC50 is the concentration that gives 50% inhibition.
